System: participants with SSc-RP
Assay: Average severity of weekly RP attacks (VAS 0-10 cm scale)
Type: in vivo, human
Text: The absolute change in average severity of weekly RP attacks (VAS 0-10 cm scale) from baseline to the end of each Dosing Period was and will be a secondary outcome variable. The sponsor-developed participant-informed diary will be used to record data. Average severity of weekly RP attacks is defined as the total severity scores of RP attacks divided by total number of RP attacks within the last 7 days of each dosing period. Total severity scores of RP attacks during the last 7 days of screening period divided by the total number of RP attacks will be used as baseline for the analysis of all periods. The variable will be calculated similar to frequency data as before.

[1] = Pooled Cilnidipine 20 mg and Cilnidipine 20 mg + Tadalafil 5 mg, n=4, Excluding Outliers, ITT Population - Part A
[2] = Pooled Cilnidipine 20 mg and Cilnidipine 20 mg + Tadalafil 5 mg, n=4, ITT Population - Part A
[3] = Pooled Cilnidipine 20 mg and Cilnidipine 20 mg + Tadalafil 5 mg, Excluding Outliers, ITT Population - Part A
[4] = Pooled Cilnidipine 20 mg and Cilnidipine 20 mg + Tadalafil 5 mg, Excluding Outliers, by Baseline RCS, first subgroup, ITT Population - Part A
[5] = Pooled Cilnidipine 20 mg and Cilnidipine 20 mg + Tadalafil 5 mg, Excluding Outliers, by Baseline RCS, second subgroup, ITT Population - Part A
[6] = Pooled Cilnidipine 20 mg and Cilnidipine 20 mg + Tadalafil 5 mg, ITT Population - Part A
[7] = Pooled Cilnidipine 20 mg and Cilnidipine 20 mg + Tadalafil 5 mg, first Baseline RCS subgroup block (not named), ITT Part A
[8] = Pooled Cilnidipine 20 mg and Cilnidipine 20 mg + Tadalafil 5 mg, first Baseline RCS subgroup block (not named), ITT Part A, score 0-10
[9] = Pooled Cilnidipine 20 mg and Cilnidipine 20 mg + Tadalafil 5 mg, second Baseline RCS subgroup block (not named), ITT Part A
[10] = Pooled Cilnidipine 20 mg and Cilnidipine 20 mg + Tadalafil 5 mg, second Baseline RCS subgroup block (not named), ITT Part A, score 0-10
[11] = Pooled Cilnidipine, n=3, Excluding Outliers, ITT Population - Part A
[12] = Pooled Cilnidipine, n=3, ITT Population - Part A
[13] = Pooled Cilnidipine, n=3, by Baseline RCS, first subgroup, ITT Population - Part A
[14] = Pooled Cilnidipine, first Baseline RCS subgroup block (not named), ITT Part A
[15] = Pooled Cilnidipine, first Baseline RCS subgroup block (not named), ITT Part A, score 0-10

COCCOC(=O)C1=C(C)NC(C)=C(C(=O)OC/C=C/c2ccccc2)C1c1cccc([N+](=O)[O-])c1 (stereo not shown) [Cilnidipine, cilnidipine]
Average Severity (0-10) of Weekly Symptomatic RP Attacks, Mean [1]: 3.40
Average Severity (0-10) of Weekly Symptomatic RP Attacks, Median [1]: 3.18
Average Severity of Weekly Symptomatic RP Attacks, Change from Baseline, Mean [1]: −1.24
Average Severity of Weekly Symptomatic RP Attacks, Change from Baseline, Median [1]: −1.06
Average Severity of Weekly Symptomatic RP Attacks, Percent Change from Baseline, Mean [1]: −24.75%
Average Severity of Weekly Symptomatic RP Attacks, Percent Change from Baseline, Median [1]: −19.08%
Average Severity (0-10) of Weekly Symptomatic RP Attacks, Mean [2]: 3.40
Average Severity (0-10) of Weekly Symptomatic RP Attacks, Median [2]: 3.18
Average Severity of Weekly Symptomatic RP Attacks, Change from Baseline, Mean [2]: −1.24
Average Severity of Weekly Symptomatic RP Attacks, Change from Baseline, Median [2]: −1.06
Average Severity of Weekly Symptomatic RP Attacks, Percent Change from Baseline, Mean [2]: −24.75%
Average Severity of Weekly Symptomatic RP Attacks, Percent Change from Baseline, Median [2]: −19.08%
Average Severity of Weekly RP Attacks (All Attacks), Change from Baseline, Mean [3]: −1.02
Average Severity of Weekly RP Attacks (All Attacks), Change from Baseline, Median [3]: −0.96
Average Severity of Weekly RP Attacks (All Attacks), Mean [3]: 3.35
Average Severity of Weekly RP Attacks (All Attacks), Median [3]: 3.06
Average Severity of Weekly RP Attacks (All Attacks), Percent Change from Baseline, Mean [3]: −21.83%
Average Severity of Weekly RP Attacks (All Attacks), Percent Change from Baseline, Median [3]: −16.40%
Average Severity of Weekly Symptomatic RP Attacks (Mean) [4]: 2.85
Average Severity of Weekly Symptomatic RP Attacks (Median) [4]: 2.40
Average Severity of Weekly Symptomatic RP Attacks, Change from Baseline, Mean [4]: −1.06
Average Severity of Weekly Symptomatic RP Attacks, Change from Baseline, Median [4]: −0.33
Average Severity of Weekly Symptomatic RP Attacks, Percent Change from Baseline, Mean [4]: −24.28%
Average Severity of Weekly Symptomatic RP Attacks, Percent Change from Baseline, Median [4]: −12.02%
Average Severity of Weekly Symptomatic RP Attacks (Mean) [5]: 5.06
Average Severity of Weekly Symptomatic RP Attacks (Median) [5]: 5.06
Average Severity of Weekly Symptomatic RP Attacks, Change from Baseline, Mean [5]: −1.79
Average Severity of Weekly Symptomatic RP Attacks, Change from Baseline, Median [5]: −1.79
Average Severity of Weekly Symptomatic RP Attacks, Percent Change from Baseline, Mean [5]: −26.14%
Average Severity of Weekly Symptomatic RP Attacks, Percent Change from Baseline, Median [5]: −26.14%
Average Severity of Weekly RP Attacks (All Attacks), Change from Baseline, Mean [6]: −1.02
Average Severity of Weekly RP Attacks (All Attacks), Change from Baseline, Median [6]: −0.96
Average Severity of Weekly RP Attacks (All Attacks), Mean [6]: 3.35
Average Severity of Weekly RP Attacks (All Attacks), Median [6]: 3.06
Average Severity of Weekly RP Attacks (All Attacks), Percent Change from Baseline, Mean [6]: −21.83%
Average Severity of Weekly RP Attacks (All Attacks), Percent Change from Baseline, Median [6]: −16.40%
Average Severity of Weekly RP Attacks (All Attacks), Percent Change from Baseline, Mean [7]: −21.36%
Average Severity of Weekly RP Attacks (All Attacks), Percent Change from Baseline, Median [7]: −9.57%
Average Severity of Weekly RP Attacks (All Attacks), Change from Baseline, Mean [8]: −0.84
Average Severity of Weekly RP Attacks (All Attacks), Change from Baseline, Median [8]: −0.39
Average Severity of Weekly RP Attacks (All Attacks), Mean [8]: 2.78
Average Severity of Weekly RP Attacks (All Attacks), Median [8]: 2.40
Average Severity of Weekly RP Attacks (All Attacks), Percent Change from Baseline, Mean [9]: −23.23%
Average Severity of Weekly RP Attacks (All Attacks), Percent Change from Baseline, Median [9]: −23.23%
Average Severity of Weekly RP Attacks (All Attacks), Change from Baseline, Mean [10]: −1.53
Average Severity of Weekly RP Attacks (All Attacks), Change from Baseline, Median [10]: −1.53
Average Severity of Weekly RP Attacks (All Attacks), Mean [10]: 5.06
Average Severity of Weekly RP Attacks (All Attacks), Median [10]: 5.06
Severity (Pooled Cilnidipine (n = 7)): −16%
Average Severity (0-10) of Weekly Symptomatic RP Attacks, Mean [11]: 2.79
Average Severity (0-10) of Weekly Symptomatic RP Attacks, Median [11]: 2.40
Average Severity of Weekly Symptomatic RP Attacks, Change from Baseline, Mean [11]: −0.87
Average Severity of Weekly Symptomatic RP Attacks, Change from Baseline, Median [11]: −0.33
Average Severity of Weekly Symptomatic RP Attacks, Percent Change from Baseline, Mean [11]: −19.22%
Average Severity of Weekly Symptomatic RP Attacks, Percent Change from Baseline, Median [11]: −12.02%
Average Severity (0-10) of Weekly Symptomatic RP Attacks, Mean [12]: 2.79
Average Severity (0-10) of Weekly Symptomatic RP Attacks, Median [12]: 2.40
Average Severity of Weekly Symptomatic RP Attacks, Change from Baseline, Mean [12]: −0.87
Average Severity of Weekly Symptomatic RP Attacks, Change from Baseline, Median [12]: −0.33
Average Severity of Weekly Symptomatic RP Attacks, Percent Change from Baseline, Mean [12]: −19.22%
Average Severity of Weekly Symptomatic RP Attacks, Percent Change from Baseline, Median [12]: −12.02%
Average Severity (0-10) of Weekly Symptomatic RP Attacks, Mean [13]: 2.79
Average Severity (0-10) of Weekly Symptomatic RP Attacks, Median [13]: 2.40
Average Severity of Weekly Symptomatic RP Attacks, Change from Baseline, Mean [13]: −0.87
Average Severity of Weekly Symptomatic RP Attacks, Change from Baseline, Median [13]: −0.33
Average Severity of Weekly Symptomatic RP Attacks, Percent Change from Baseline, Mean [13]: −19.22%
Average Severity of Weekly Symptomatic RP Attacks, Percent Change from Baseline, Median [13]: −12.02%
Average Severity of Weekly RP Attacks (All Attacks), Percent Change from Baseline, Mean [14]: −17.99%
Average Severity of Weekly RP Attacks (All Attacks), Percent Change from Baseline, Median [14]: −7.69%
Average Severity of Weekly RP Attacks (All Attacks), Change from Baseline, Mean [15]: −0.71
Average Severity of Weekly RP Attacks (All Attacks), Change from Baseline, Median [15]: −0.20
Average Severity of Weekly RP Attacks (All Attacks), Mean [15]: 2.55
Average Severity of Weekly RP Attacks (All Attacks), Median [15]: 2.40
